Values of other authors, collected in patent US7989624B2, “Aryl spirolactam CGRP receptor antagonists” (Merck Sharp & Dohme Corp., priority 2004, dated 2011).
Where no end group is shown, it is not given here.

Columns and labels:
[1] = test system: migraine; details: clinical studies, intravenously administered
[2] = test system: marmoset; details: electrical stimulation of the trigeminal ganglion
[3] = test system: rat; details: trigeminal ganglion stimulation
[4] = test system: rats; details: electrical stimulation of the dura mater, prior administration

Compound	acute treatment for migraine [1]	increase in facial blood flow [2]	increased facial blood flow [3]	increase of the diameter of the middle meningeal artery [4]
NCCCC[C@H](NC(=O)[C@@H](Cc1cc(Br)c(O)c(Br)c1)NC(=O)N1CCC(N2Cc3ccccc3NC2=O)CC1)C(=O)N1CCN(c2ccncc2)CC1 [BIBN4096BS]	safe and effective	could be blocked		
CGRP(8-37): a fragment of CGRP that lacks seven N-terminal amino acid residues; a peptide CGRP antagonist (VTHRLAGLLSRSGGVVKNNFVPTNVGSKAF; ends and bridges not checked; UniProt P06881 90-119, looked up, fragment)			inhibited	blocked
